This note sets out measurements from PMC5610175, “The Kinetochore Receptor for the Cohesin Loading Complex” (Cell, 2017).

What is called Kd is the equilibrium constant for the complex coming apart.

Non-standard residues stand in square brackets, D forms with d. Residues, ends and D or L forms follow the SMILES beside them. No end group written: not given here. pT = C[C@@H](OP(=O)(O)O)[C@H](N)C(=O)O; pS = N[C@@H](COP(=O)(O)O)C(=O)O

The target in experiment [1] is T1, Scc2^1-181-Scc4 (WT) (Saccharomyces cerevisiae, UniProt P40090+Q04002).
T1 construct: made in house; host or cells: bacteria (E. coli is stated only for the Ctf19 complex proteins)
T1 sequence (P40090 1-624): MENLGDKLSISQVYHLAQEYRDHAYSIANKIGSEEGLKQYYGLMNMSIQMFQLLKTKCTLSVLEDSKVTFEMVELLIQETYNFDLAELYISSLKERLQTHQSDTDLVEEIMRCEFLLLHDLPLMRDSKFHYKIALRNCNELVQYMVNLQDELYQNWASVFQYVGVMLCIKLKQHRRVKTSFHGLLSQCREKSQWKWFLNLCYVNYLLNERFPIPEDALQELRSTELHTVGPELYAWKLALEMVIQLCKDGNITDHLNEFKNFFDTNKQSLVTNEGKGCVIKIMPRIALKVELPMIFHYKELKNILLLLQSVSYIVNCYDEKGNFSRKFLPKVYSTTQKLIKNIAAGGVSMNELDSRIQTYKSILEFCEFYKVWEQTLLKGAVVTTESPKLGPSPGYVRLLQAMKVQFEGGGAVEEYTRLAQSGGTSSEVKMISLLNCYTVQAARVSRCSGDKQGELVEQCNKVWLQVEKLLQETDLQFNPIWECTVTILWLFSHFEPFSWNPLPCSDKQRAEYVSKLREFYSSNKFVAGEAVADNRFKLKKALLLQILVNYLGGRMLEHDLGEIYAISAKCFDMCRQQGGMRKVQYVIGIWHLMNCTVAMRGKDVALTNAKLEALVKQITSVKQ
T1 sequence (Q04002 1-181 partner limits assumed): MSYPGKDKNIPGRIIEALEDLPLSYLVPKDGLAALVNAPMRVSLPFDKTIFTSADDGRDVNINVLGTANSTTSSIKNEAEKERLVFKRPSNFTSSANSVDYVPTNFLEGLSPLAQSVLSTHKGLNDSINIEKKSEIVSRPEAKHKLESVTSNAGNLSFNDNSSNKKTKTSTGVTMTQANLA
Nature of the experiment: Peptide binding to Scc2^1-181-Scc4 WT by biolayer interferometry. The following applies: for binding to Scc2^1–181-Scc4 in vitro (in words): Scc2^1–181-Scc4 WT. Further details: species or system budding yeast. How it is done: Figure S5 Synthetic Ctf19^1–11 binds Scc2^1–181-Scc4, and Binding Requires Phosphorylation of Ctf19 Residue T4 or S5, Related to Figure 6 Experiments were carried out as in Figure 6B (error bars – +/−SD for three independent experiments, obscured by data points where not visible). m3 refers to immobilized Scc2^1-181-Scc4^m3. Ctf19 peptides and Scc2^1-181-Scc4 complexes used are listed in the table along with measured dissociation constants (Kd; SE – standard error for best-fit binding curve; single site, specific binding; Phos. – phosphorylated residues). TEXT PRINTED IN THE PICTURE: Ctf19 residues 1-11; Phos. none: Kd(±SE)(μM): n.d. (Scc2^1-181-Scc4: WT) | Ctf19 residues 1-11; Phos. pT4: Kd(±SE)(μM): 1757(6000+) (Scc2^1-181-Scc4: WT) | Ctf19 residues 1-11; Phos. pS5: Kd(±SE)(μM): 122(66) (Scc2^1-181-Scc4: WT); Kd(±SE)(μM): n.d. (Scc2^1-181-Scc4: m3) | Ctf19 residues 1-6; Phos. pT4;pS5: Kd(±SE)(μM): 22.6(3.0) (Scc2^1-181-Scc4: WT)
We used biolayer interferometry (ForteBio) to quantify the interaction between Scc2^1-181–Scc4 and synthetic peptides derived from the N-terminal region of Ctf19 (Tufts University Core Facility, Boston). For all steps, we used octet buffer (40mM HEPES, pH 7.5; 200mM NaCl; 1mM DTT) and low-volume 96-well opaque black plates. […] This step was allowed to reach saturation before a final incubation in octet buffer.
To derive binding curves, we first applied a linear correction so that all association steps began at zero response units. We then performed a linear drift correction by subtracting the signal for Scc2^1-181-Scc4 incubated in buffer alone during the association step (no peptide, linear subtraction for each time point, independent control for each experiment). We then applied a loading factor to correct for the Scc2^1-181-Scc4 immobilization efficiency for each well. From these normalized association curves, we extracted maximum responses for each well by averaging the signal across the final ten seconds of the association step. We performed these operations for three independent experiments, performed with new tips and samples, for each data point. […] Data points represent mean maximum responses, and error bars show the standard deviation for the three experiments. Fits were determined using GraphPad Prism software assuming a single specific binding site.

The subject of experiment [2] is analog-sensitive DDK (Cdc7-AS3/Dbf4). The experiment can be described thus: DDK activity assay: phosphate transfer to Ctf19-Mcm21 by analog-sensitive DDK. Type of experiment: biochemical, S. cerevisiae. The following applies: Ctf19-Mcm21 substrate, γ-^32[P]-ATP, one hour at 30°C, autoradiography, similar to those that inhibit kinase activity in vivo (Wan et al., 2006). How it is done: Figure S2 Determinants of Ctf19 Phosphorylation by DDK, Related to Figure 1 (A) Products of phosphorylation reactions containing Ctf19-Mcm21, analog-sensitive DDK, γ-^32[P]-ATP, and increasing concentrations of PP1. (B) Reactions carried out as in panel A, except wild-type DDK was used as in Figure 1B. After phosphorylation, reactions were subjected to a brief cleavage reaction by incubation with trypsin (top, autoradiography). Identical cleavage reactions were carried out in the absence of DDK and ATP to identify Ctf19-Mcm21 cleavage fragments (bottom; Coomassie). A schematic of the cleavage reaction is shown below (PDB: 3ZXU). (C) Phosphorylation of mutant Ctf19-Mcm21 complexes by purified DDK. Phosphorylation reactions were carried out as in panel A except that PP1 was not included. Substrates are indicated below. […] Reactions were carried out as in (B) in the presence or absence of an equimolar amount of purified Ctf3 complex.
An S. cerevisiae strain in which Cdc7 has been tagged at its C terminus with a TAP tag (calmodulin binding peptide – TEV site – tandem Protein A tags) was grown to an optical density (A600) of 2 in 12 l of yeast extract peptone dextrose (YPD) medium. […]
For phosphorylation reactions, purified DDK was concentrated to approximately 20uM as determined by absorbance at 280nm. […] Reaction products were analyzed by SDS-PAGE and autoradiography.

Experiment [3] concerns centromeric Scc2 in ctf3Δ cells expressing DBF4-FRB and CTF19-FKBP12. Nature of the experiment: Artificial tethering of Dbf4-FRB to Ctf19-FKBP12: centromeric Scc2 localization by ChIP-qPCR. It is filed as cell-based, budding yeast. The following applies: rapamycin 1 μM, 2.5 hr, nocodazole and benomyl, versus DMSO, at least four independent experiments. (In general: In qPCR the cycle at which signal appears reflects the starting amount.)
Method: (F) Scc2 localization was assessed by ChIP-qPCR in the presence or absence of DDK tethering, CTF3, and Ctf19 phosphorylation sites. Wild-type (AM21613), ctf19-9A (AM21681), ctf19-2A (AM22360), ctf3Δ (AM21614), ctf19-9A ctf3Δ (AM21617), ctf19-2A ctf3Δ (AM22672), and control (AM21486) strains, all expressing DBF4-FRB and CTF19-FKBP12, were arrested in G1 for 3 hr before release into medium containing nocodazole, benomyl, and either DMSO (no DDK tethering) or rapamycin (DDK tethering; 1 μM) for 2.5 hr. Mean values of at least four independent experiments are shown. Error bars indicate SE (^∗p < 0.05; ^∗∗p < 0.01; Student’s t test, unpaired, two-tails; ns, not significant).
To artificially tether Dbf4 to the kinetochores, Dbf4 was tagged with FRB (pFA6a-FRB-KanMX6), and CTF19, ctf19-9A and ctf19-2A were tagged with FKBP12-TRP1 (pFA6a-FKBP12-TRP1). Proteins were tagged at their C-termini by one-step cassette integrations at their original gene loci as previously described ([Haruki et al., 2008]). Yeast strains for these experiments also carried TOR1-1, which confers rapamycin resistance, and the fpr1Δ mutation. Tethering of FRB and FKBP12 fusion proteins was induced by addition of rapamycin to the medium at a final concentration of 1 μM. For control cultures, an equal volume of DMSO was added instead. […]

In experiment [4] the target is T2, Scc2^1–181-Scc4 complex, wild type, tagged (6His-FLAG-Scc2 1-181; 6His-Scc4) (S. cerevisiae, UniProt Q04002 1-181; P40090 1-624).
T2 construct: Scc4, budding yeast cohesin loader subunit; source: recombinant, expressed in bacteria, purified; not shown: 6His, N-terminal, kept; FLAG, N-terminal, kept
T2 sequence 1: T1 sequence (Q04002 1-181 partner limits assumed)
T2 sequence 2: T1 sequence (P40090 1-624)
The experiment can be described thus: BLI; ForteBio; 6His-tagged Scc2 1-181-Scc4 captured on NiNTA tips, Ctf19 peptides in solution at varying concentrations; 40mM HEPES pH 7.5, 200mM NaCl, 1mM DTT; steady-state responses, single specific site fit (Prism); three independent experiments. The following applies: both partners purified. A general note: BLI is a label-free optical method that tracks binding on a fibre tip over time.

Experiment [5] deals with T3, Scc4, as in the crystallised Scc2^1–181-Scc4 complex (S. cerevisiae, UniProt P40090 1-624).
T3 construct: Scc4, budding yeast cohesin loader subunit; Single chain of m8, for the pairs within the structure; not shown: 6His, N-terminal, cleaved
T3 sequence: T1 sequence (P40090 1-624)
Nature of the experiment: crystal structure; TEV-cleaved Scc2 1-181-Scc4 mixed with Ctf19 1-6 diphosphorylated peptide at 1:1.8; 8% PEG 4,000, 80mM PIPES pH 6, 18°C; space group P6_2, 3.19Å. The following applies: both partners purified.

The target in experiment [6] is T4, Scc2^1–181-Scc4 complex, wild type, tagged (6His-FLAG-Scc2 1-181; 6His-Scc4) (S. cerevisiae, UniProt Q04002 1-181; P40090 1-624).
T4 chain 1: T1 sequence (Q04002 1-181 partner limits assumed)
T4 chain 2: T1 sequence (P40090 1-624)
Nature of the experiment: BLI; phosphorylated S5.

The target of experiment [7] is T4, Scc2^1–181-Scc4 complex, wild type, …. Nature of the experiment: BLI; phosphorylated T4; SE 6000+.

In experiment [1] (immobilized Scc2^1-181-Scc4 WT on NiNTA tips, 40mM HEPES, pH 7.5, 200mM NaCl, 1mM DTT, three independent experiments, SE for best-fit binding curve, single site, specific binding), `CSCC[C@H](N)C(=O)N[C@@H](CC(=O)O)C(=O)N[C@@H](Cc1ccccc1)C(=O)N[C@H](C(=O)N[C@@H](COP(=O)(O)O)C(=O)N[C@@H](CC(=O)O)C(=O)O)[C@@H](C)OP(=O)(O)O` [Ctf19 residues 1-6; Phos. pT4;pS5] (HELM PEPTIDE1{M.D.F.[C[C@@H](OP(=O)(O)O)[C@H](N[*:1])C(=O)[*:2]].[O=C([C@H](COP(=O)(O)O)N[*:1])[*:2]].D}$$$$V2.0) registered a Kd of 22.6 µM.
Regarding `CC(C)(C)n1nc(-c2cccc3ccccc23)c2c(N)ncnc21` [PP1], the “concentration at which phosphate transfer to Ctf19 was inhibited” value in experiment [2] was roughly 25 µM.
As for `CO[C@H]1C[C@@H]2CC[C@@H](C)[C@@](O)(O2)C(=O)C(=O)N2CCCC[C@H]2C(=O)O[C@H]([C@H](C)C[C@@H]2CC[C@@H](O)[C@H](OC)C2)CC(=O)[C@H](C)/C=C(\C)[C@@H](O)[C@@H](OC)C(=O)[C@H](C)C[C@H](C)/C=C/C=C/C=C/1C` [rapamycin], the “effect on Ctf3 requirement for centromeric Scc2 localization (in words)” value in experiment [3] is “bypassed the Ctf3 requirement”.
Turning to “MDFTSDTTNSH [Ctf19 residues 1-11; Phos. none, unmodified synthetic Ctf19^1–11 peptide]”, the “binding to Scc2^1–181-Scc4 in vitro (in words)” value in experiment [1] (pH 7.5, listed as unmodified Ctf19^1–11) is given as “did not interact with Scc2^1–181-Scc4”; in experiment [1] (pH 7.5, listed as unphosphorylated peptide), “did not”.
Turning to “MDFpTSDTTNSH [Ctf19 residues 1-11; Phos. pT4, synthetic Ctf19^1–11 peptide phosphorylated at T4]”, the “binding to Scc2^1–181-Scc4 in vitro (in words)” value in experiment [1] (pH 7.5) is listed as “detectable binding”.

B1: Synthetic Ctf19^1–6 peptide phosphorylated at T4 and S5 (MDFpTpSD) (peptide)
peptide: MDF[pT][pS]D
notes: Ctf19 residues 1-6, budding yeast; also called phosphorylated Ctf19^1–6; Ctf19^1-6 diphosphorylated peptide; source: synthetic peptide (Tufts Univ. Core Facility)
Consider B1, for which, in experiment [4], the Kd was roughly 23 µM.

B2: Scc2^1–181, as in the crystallised Scc2^1–181-Scc4 complex (domain or fragment, S. cerevisiae, UniProt Q04002 1-181, looked up)
chain: T1 sequence (Q04002 1-181 partner limits assumed)
notes: Single chain of m8, for the pairs within the structure; also called Scc2n; source: recombinant, purified with Scc4, tags cleaved with TEV protease; not shown: 6His, N-terminal, cleaved
Regarding B2, the binding result in experiment [5] is “binds”.

B3: Synthetic Ctf19^1–11 peptide phosphorylated at S5 (MDFTpSDTTNSH) (peptide)
peptide: MDFT[pS]DTTNSH
Regarding B3, in experiment [6], the affinity, expressed as Kd, was 122 µM.

B4: Synthetic Ctf19^1–11 peptide phosphorylated at T4 (MDFpTSDTTNSH) (peptide)
peptide: MDF[pT]SDTTNSH
As for B4, in experiment [7], the dissociation constant Kd amounted to 1760 µM.
